Assay [1] has as its target recombinant human PIM1 (Homo sapiens (Human), UniProt P11309). Put plainly: PIM-1 kinase activity in cell-free in vitro assay. The class given is biochemical. Conditions: for inhibition at 0.5 µM: 500 nM compound, read-out: PIM-1: % inh 500 nM.
In assay [2] the test system is HCT-116 human colorectal carcinoma cells. Briefly: Cell-proliferation assay using Alamar Blue dye.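 Further: cells exposed to compound for about 4 days, then Alamar Blue added and dye fluorescence read after about 4 h, compared with medium-only control wells.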 It counts as cell-based. Conditions: Homo sapiens.
Where [3] appears, read: HCT-116, HCT-116, first column, read-out: HCT-116 (uM), cell proliferation modulatory activity.
The mark [4] stands for this setting: HCT-116, HCT-116, second column, read-out: HCT-116 (uM), cell proliferation modulatory activity.
Setting [5] is: HCT-116, read-out: HCT-116 (uM), cell proliferation modulatory activity, HCT-116, second column.
Where [6] appears, read: HCT-116, read-out: HCT-116 (uM), cell proliferation modulatory activity, HCT-116, first column.
[7] abbreviates: HCT-116, read-out: HCT-116 (uM), cell proliferation modulatory activity, HCT-116, second HCT-116 column (c8).

Experimental findings from US8168651B2, “Protein kinase modulators” (Cylene Pharmaceuticals, Inc., priority 2008, dated 2012) are described below.

Each structure is given as a SMILES string. Like-named read-outs stand apart in the source and are kept apart here.

recombinant human PIM1, sequence (P11309 whole entry): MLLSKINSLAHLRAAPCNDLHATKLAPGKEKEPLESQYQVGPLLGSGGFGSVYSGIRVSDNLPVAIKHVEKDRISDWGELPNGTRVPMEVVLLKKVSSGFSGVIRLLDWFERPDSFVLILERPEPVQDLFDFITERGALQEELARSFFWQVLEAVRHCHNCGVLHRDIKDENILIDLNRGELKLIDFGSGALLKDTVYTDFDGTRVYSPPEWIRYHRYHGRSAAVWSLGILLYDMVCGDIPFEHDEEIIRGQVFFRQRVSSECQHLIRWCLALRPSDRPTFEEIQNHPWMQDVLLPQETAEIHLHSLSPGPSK

`CS(=O)(=O)NC(=O)c1ccc2c(c1)nc(Nc1ccccc1)c1ccsc12`: the inhibition at 0.5 µM in assay [1] (cell-free) was -15.7%. Besides, in assay [2] (setting [3]), the IC50 was 10 µM. `N#Cc1ccc2c(c1)[nH]c(=O)c1ccncc12`: the inhibition at 0.5 µM in assay [1] (cell-free) was -16%. Further, the IC50 in assay [2] (setting [4]) is above 10 µM. As for `CN(C)CCNc1nc2ccccc2c2sccc12` [drawing 1400], the inhibition at 0.5 µM in assay [1] (cell-free) is -24.2%. For the same molecule, the IC50 in assay [2] (setting [3]) amounted to 2.3 µM. For `O=C(O)c1ccc2c(c1)nc(Nc1cccc(C(=O)NC3CC3)c1)c1ccsc12`, the inhibition at 0.5 µM in assay [1] (cell-free) was determined as 37.5%. For the same molecule, in assay [2] (setting [5]), the IC50 was above 10 µM. On to `O=C(O)c1ccc2c(c1)nc(NCCN1CCOCC1)c1ccsc12`, for which, in assay [1] (cell-free), the inhibition at 0.5 µM was -10%. The IC50 in assay [2] (setting [6]) worked out at 10 µM. Regarding `O=c1[nH]c(-c2ccc3c(c2)nc(Nc2ccccc2)c2ccsc23)no1` [drawing 1434], the inhibition at 0.5 µM in assay [1] (cell-free) amounted to 5.78%. Moreover, the IC50 in assay [2] (setting [4]) was found to be 10 µM. As to `O=C(O)c1ccc2c(c1)nc(NCCO)c1ccsc12`, the inhibition at 0.5 µM in assay [1] (cell-free) was -49.4%. Also, the IC50 in assay [2] (setting [6]) is 10 µM. For `COc1ccccc1Nc1nc2cc(C(=O)O)ccc2c2sccc12`, in that order: 0.445% and 10 µM.

On to `COc1cc(Nc2nc3cc(-c4nnn[nH]4)ccc3c3sccc23)cc(OC)c1`, for which the inhibition at 0.5 µM in assay [1] (cell-free) was 55.8%. Besides, the IC50 in assay [1] (cell-free) was determined as 0.465 µM; in assay [2] (setting [5]), 15 µM. For the molecule `N#Cc1ccc2c(c1)nc(Cl)c1ccsc12` [drawing 1398], the inhibition at 0.5 µM in assay [1] (cell-free) is -20.2%. In assay [2] (setting [3]), the IC50 was 10 µM. Turning to `O=C(O)c1ccc2c(c1)nc(NCc1ccccc1)c1nc(NC3CC3)ncc12` [drawing 1626], in assay [1] (cell-free assay), the inhibition at 0.5 µM was found to be 25.3%. Moreover, the IC50 in assay [2] (setting [7]) was above 10 µM. Turning to `O=C(O)c1ccc2c(c1)nc(NCCc1ccccc1)c1ccsc12`, in assay [1] (cell-free), the inhibition at 0.5 µM is 19.9%. Besides, in assay [2] (setting [6]), the IC50 worked out at 10 µM. As to `O=C(O)c1ccc2c(c1)nc(N1CCOCC1)c1ccsc12` [drawing 1401], the inhibition at 0.5 µM in assay [1] (cell-free) was 35.7%. Besides, the IC50 in assay [2] (setting [3]) was 10 µM. `O=C(O)CNC(=O)c1cccc(Nc2nc3cc(C(=O)O)ccc3c3sccc23)c1`: the inhibition at 0.5 µM in assay [1] (cell-free) came to 24%. Further, the IC50 in assay [2] (setting [5]) is above 10 µM. For `CCc1cccc(Nc2nc3cc(-c4nnn[nH]4)ccc3c3sccc23)c1`, in assay [1] (cell-free), the inhibition at 0.5 µM amounted to 61% and the IC50 was above 1.1 µM. Further, in assay [2] (setting [5]), the IC50 is above 10 µM. Turning to `O=C(O)c1ccc2c(c1)nc(Nc1cc(Cl)ccc1F)c1ccsc12`, the inhibition at 0.5 µM in assay [1] (cell-free) was determined as 52.8%. Moreover, the IC50 in assay [1] (cell-free) is 0.42 µM; in assay [2] (setting [5]) it was above 10 µM.

Consider `CN(C)CCNc1nc2cc(C(=O)O)ccc2c2ccccc12` [drawing 1391], for which the inhibition at 0.5 µM in assay [1] (cell-free) came out at 35%. Further, the IC50 in assay [2] (setting [6]) came to 10 µM. As to `O=C(O)c1ccc2c(c1)nc(NC1CC1)c1ccncc12` [drawing 1639], the inhibition at 0.5 µM in assay [1] (cell-free assay) amounted to 28.1%. For the same molecule, the IC50 in assay [2] (setting [7]) was above 10 µM. In the case of `O=C(O)c1ccc2c(c1)nc(Nc1cccc(Cl)c1)c1ccsc12`, in assay [1] (cell-free), the inhibition at 0.5 µM was 81.1% and the IC50 was 0.391 µM. Consider `Cc1ncc2c(n1)c(Nc1cccc(Cl)c1)nc1cc(C(=O)O)ccc12`, for which, in assay [1] (cell-free assay), the inhibition at 0.5 µM amounted to 12.9%. As to `COc1ccc(OC)c(Nc2nc3cc(-c4nnn[nH]4)ccc3c3sccc23)c1`, the inhibition at 0.5 µM in assay [1] (cell-free) came to 21.8%.

`NNC(=O)c1cccc2c1nc(Nc1cccc(Cl)c1)c1ccncc12`: in assay [1] (Table 45), the IC50 was below 5 µM.

Consider `CCN(CC)CCNc1ncc2c(n1)c(Nc1ccccc1)nc1cc(C(=O)O)ccc12`, for which the inhibition at 0.5 µM in assay [1] (cell-free assay) came to 4.27%. For the molecule `Fc1cc(Nc2nc3cc(-c4nnn[nH]4)ccc3c3cnccc23)ccc1Cl`, in assay [1] (cell-free), the inhibition at 0.5 µM turned out to be 9.3%. Regarding `COC(=O)c1cccc2c1nc(Cl)c1ccncc12` [drawing 2270], the IC50 in assay [1] (Table 45) is above 1.1 µM. In the case of `O=C(O)c1ccc2c(c1)nc(Nc1ccccc1)c1nc(NC3CCNCC3)ncc12`, in assay [1] (cell-free assay), the inhibition at 0.5 µM is -2.53%. The same measure, in the same setting: then `O=C(O)c1ccc2c(c1)nc(Nc1cccc(F)c1)c1nc(NC3CC3)ncc12`, with 59.3%.
